Laboratory results taken from article PMC8386747, “Structure–activity relationship, in vitro and in vivo evaluation of novel dienyl sulphonyl fluorides as selective BuChE inhibitors for the treatment of Alzheimer's disease” (Journal of Enzyme Inhibition and Medicinal Chemistry, 2021).
Read-outs that look alike come from different tables or passages of the source.

Experiments:
BuChE from equine serum = molecular target: T1, BuChE from equine serum (Equus caballus, UniProt P81908); assay: eqBuChE inhibition assay (Ellman's method); assay type: biochemical; details: BuChE from horse serum; for IC50: mean ± SEM; for inhibition at 20 µM: read-out: BuChE % inhibition at 20 µM
T1 construct: BuChE from equine serum (C4290-1KU; Sigma); purchased Sigma C4290-1KU; host or cells: equine serum
Experimental: (§1) According to the Ellman’s method, assays were performed on AChE from electric eel (C3389-500UN; Sigma) and BuChE from equine serum (C4290-1KU; Sigma). The experiment was performed in 48-well plates in a final volume of 500 µL. Each well contained 0.036 U/mL of eeAChE or eqBuChE, and 0.1 M pH 8 PBS. They were pre-incubated for 20 min at different compound concentrations at 37 °C. […] The DTNB produces the yellow anion 5-thio-2-nitrobenzoic acid along with the enzymatic degradation of ACh or BuCh. Changes in absorbance were measured at 410 nm after 20 min in a PerkinElmer VICTOR Nivo reader. The IC50 values were calculated graphically from inhibition curves (log inhibitor concentration vs percent of inhibition). A control experiment was performed under the same conditions without inhibitor and the blank contained buffer, DMSO, DTNB, and substrate.

AChE from electric eel = molecular target: T2, AChE from electric eel (Electrophorus electricus, UniProt O42275); assay: EeAChE inhibition assay (Ellman's method); assay type: biochemical; details: for inhibition at 20 µM: read-out: AChE % inhibition at 20 µM
T2 construct: assays were performed on AChE from electric eel (C3389-500UN; Sigma); purchased Sigma C3389-500UN
Experimental: as §1

[1] = molecular target: T3, recombinant human AChE (hAChE) (Homo sapiens, UniProt P22303); assay: hAChE inhibition assay (Ellman's assay); assay type: biochemical
T3 construct: purchased Sigma C1682
Experimental: The solution was diluted to 5 concentrations of 200, 100, 10, 1 and 0.1 µM in ethanol. Measurements were performed using 96-well plates. Buffer (40 µL), sample at a series of concentrations (10 µL), AChE (10 µL), and dibutyl succinate (20 µL) were successively added. The mixture was then incubated for 5 min at 37 °C. Then, 20 µL of ACh or BuCh were added and the reaction started. […] For the blank value, 10 µL of water was used instead of the inhibitor solution. The activity of the inhibitor was expressed as a logarithmic plot of the percentage of enzyme activity (with 100% as the reference) versus the concentration of the compound. IC50 values were determined graphically from inhibition curves (log inhibitor concentration versus percent inhibition).

in vitro = details: PAMPA
Experimental: (§2) The 96-well UV plate (COSTAR) was manufactured by Corning Corporation, USA, and the commercially available drugs and test compounds were initially dissolved in DMSO at a concentration of 20 mg/mL. The solution was then diluted 200-fold with PBS (pH 7.4 ± 0.1)/EtOH (70/30, v/v) solution to a final concentration of 100 µg/mL.
(§3) The test compound was dissolved in DMSO at 5 mg/mL and diluted 200-fold with universal buffer (final concentration 25 µg/mL) to prepare the secondary stock solution; 200 µL of the secondary stock solution was added to the donor well; the acceptor plate was coated with 4 µL of 20 mg/mL dodecyl porcine polar brain, and then, 200 µL of pH 7.4 universal buffer was added to the acceptor well; the acceptor plate was carefully placed on the donor plate to form a “sandwich” and maintained for 18 h; the drug concentrations in the acceptor, donor and reference wells were determined using a UV microplate reader; the experiment was repeated three times, and the concentrations of the test compound in the donor and acceptor wells were measured using a UV plate spectral reader (PerkinElmer VICT or Nivo, Finland). In at least three independent experiments, each sample was analysed at three wavelengths in a four well.

[2] = PAMPA-BBB, reported data from the reference; cited from earlier work
[3] = for BBB penetration: PAMPA-BBB class
Experimental: as §2, §3

[4] = tested on: Aβ1-42-induced cognitive dysfunction; assay: Morris water maze in Aβ1-42-induced cognitive impairment model; assay type: in vivo, mouse; details: mice, Aβ1-42 10 µg icv; 15 mg/kg po Day 3 to Day 14
Experimental: All experiments were performed according to the National Institutes of Health Guide for the Care and Use of Laboratory Animals. The Measures for the Care and Treatment of Laboratory Animals were approved by the Animal Care and Use Committee of Anhui Medical University. Male ICR mice were used in the animal centre of Anhui Medical University (Hefei). Male mice (18‒24 g) aged 6‒8 weeks, 10 mice per cage, room temperature 22 ± 2 °C, light/dark (12:12 h) cycle. These animals had access to food and water prior to testing. The ambient temperature and relative humidity (50%) of the room remained consistent throughout all tests. Behavioural experiments: MWM was used for cognitive function, and mice were randomly selected for behavioural experiments. Each experimental group consisted of 8‒10 mice/dose. The experimental time was from 08:00 to 14:00, and the mice were sacrificed by cervical dislocation immediately after the end of the experiment. […]. Aβ1-42 aggregation was induced by dissolving the Aβ1-42 peptide in DMSO as a stock solution of 5 mM and incubating it in saline at a final concentration of 2 mg/mL for 24 h at 37 °C.
The behavioural study was a water maze experimental behavioural study on days 10 − 15, including a 5-day learning and memory training, and a test assessment on day 6. MWM consists of a water-filled pool (grey, circular, 1.20 m in diameter, 0.60 m in height) and a platform with adjustable height and movable position. The pool was divided into four equal quadrants (compass position: NE, NW, SE, SW) using a computerised video tracking system (SMART, version 3.0; Panlab, Spain). The pool was filled with water, generally about 48 cm below the edge, to prevent animals from jumping out, and the water temperature was maintained at 22 ± 1 °C. […] The time to reach the hidden platform (i.e. escape latency), the distance to reach the hidden platform, the distance in the target (NW) area, and the average speed were recorded. […]

[5] = AChE from electric eel, 20 µM, na = no inhibitory activity at 20 µM
[6] = AChE from electric eel, mean ± SEM, read-out: AChE IC50
[7] = pH 7.4, Pe×10^-6cm/s Exp. value, PAMPA-BBB, three independent experiments

T2 sequence (O42275 24-633): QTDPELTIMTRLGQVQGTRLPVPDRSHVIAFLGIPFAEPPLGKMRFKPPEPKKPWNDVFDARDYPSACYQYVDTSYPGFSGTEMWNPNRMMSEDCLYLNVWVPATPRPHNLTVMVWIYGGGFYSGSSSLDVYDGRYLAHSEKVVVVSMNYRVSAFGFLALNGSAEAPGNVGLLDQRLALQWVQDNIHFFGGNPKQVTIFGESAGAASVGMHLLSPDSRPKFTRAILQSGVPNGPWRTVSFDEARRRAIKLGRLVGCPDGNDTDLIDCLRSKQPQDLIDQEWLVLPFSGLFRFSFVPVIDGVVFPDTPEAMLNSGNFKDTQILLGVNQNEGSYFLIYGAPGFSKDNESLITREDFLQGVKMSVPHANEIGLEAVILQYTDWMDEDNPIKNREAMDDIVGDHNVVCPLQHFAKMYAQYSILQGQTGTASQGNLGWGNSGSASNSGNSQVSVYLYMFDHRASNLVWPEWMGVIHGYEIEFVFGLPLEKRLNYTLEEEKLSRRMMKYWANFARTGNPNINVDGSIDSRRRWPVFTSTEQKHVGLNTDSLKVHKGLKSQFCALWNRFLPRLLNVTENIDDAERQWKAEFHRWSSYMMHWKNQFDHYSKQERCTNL
T1 sequence (P81908 whole entry): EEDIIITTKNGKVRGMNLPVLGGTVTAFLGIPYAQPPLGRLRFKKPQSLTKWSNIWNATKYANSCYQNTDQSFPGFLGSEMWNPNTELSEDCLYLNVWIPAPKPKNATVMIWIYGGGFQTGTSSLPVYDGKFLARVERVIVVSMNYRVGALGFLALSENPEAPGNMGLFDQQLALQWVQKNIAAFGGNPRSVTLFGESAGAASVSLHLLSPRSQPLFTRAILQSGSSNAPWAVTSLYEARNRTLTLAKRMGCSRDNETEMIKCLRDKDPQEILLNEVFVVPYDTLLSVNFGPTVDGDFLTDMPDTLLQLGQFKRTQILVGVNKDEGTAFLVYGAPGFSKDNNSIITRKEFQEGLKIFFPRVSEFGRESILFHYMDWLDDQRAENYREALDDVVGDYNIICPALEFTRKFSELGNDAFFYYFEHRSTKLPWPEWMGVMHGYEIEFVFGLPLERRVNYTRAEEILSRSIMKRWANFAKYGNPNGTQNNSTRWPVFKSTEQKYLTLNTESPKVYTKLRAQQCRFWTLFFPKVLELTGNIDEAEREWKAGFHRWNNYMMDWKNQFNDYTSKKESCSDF
T3 sequence (P22303 32-614): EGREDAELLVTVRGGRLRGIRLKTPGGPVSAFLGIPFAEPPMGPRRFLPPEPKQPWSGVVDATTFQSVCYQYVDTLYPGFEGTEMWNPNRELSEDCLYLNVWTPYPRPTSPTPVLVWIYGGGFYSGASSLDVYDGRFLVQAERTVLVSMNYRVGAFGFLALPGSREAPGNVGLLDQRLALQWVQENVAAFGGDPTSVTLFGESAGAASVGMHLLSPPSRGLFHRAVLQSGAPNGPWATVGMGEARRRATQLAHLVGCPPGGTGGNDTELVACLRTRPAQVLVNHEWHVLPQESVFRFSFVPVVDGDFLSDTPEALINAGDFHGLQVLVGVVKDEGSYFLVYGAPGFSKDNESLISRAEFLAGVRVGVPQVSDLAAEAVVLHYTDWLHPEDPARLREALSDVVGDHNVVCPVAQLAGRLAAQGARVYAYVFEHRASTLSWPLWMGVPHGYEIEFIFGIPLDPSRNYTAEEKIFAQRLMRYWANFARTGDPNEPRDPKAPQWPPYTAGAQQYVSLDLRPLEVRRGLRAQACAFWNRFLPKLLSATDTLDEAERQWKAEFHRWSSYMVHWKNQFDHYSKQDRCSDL

SMILES	IC50 (BuChE from equine serum) [µM]	inhibition at 20 µM (AChE from electric eel; [5]) [%]	other results
O=S(=O)(F)C(Br)=CC=Cc1cccs1 [Compound A13]	0.32 ± 0.06	–	–
COc1cccc(C=CC=C(Br)S(=O)(=O)F)c1 [Compound A16]	0.3 ± 0.04	35.9 ± 1.4	–
O=S(=O)(F)/C(C#Cc1cccc(Br)c1)=C/C=C/c1ccccc1 [Compound D8]	4.56 ± 2.65	–	IC50 (AChE from electric eel; [6]): 2.73 ± 0.1 µM
O=S(=O)(F)/C(I)=C/C=C/c1ccccc1 [Compound C1, δ-phenyl-α-I-dienyl sulphonyl fluoride]	1.76 ± 0.62	23.4 ± 2.8	–
CCc1ccc(/C(=C\C=C\c2ccccc2)S(=O)(=O)F)cc1 [Compound D1]	1.18 ± 0.33	25.1 ± 1.6	–
O=S(=O)(F)/C(I)=C/C=C/c1ccc(Br)cc1 [Compound C4]	0.57 ± 0.03	10.5 ± 3.6	–
CSc1ccc(/C(=C\C=C\c2ccccc2)S(=O)(=O)F)cc1 [Compound D2]	–	25.5 ± 0.4	inhibition at 20 µM (BuChE from equine serum): 28.2 ± 1.89%
O=C(Oc1ccc(/C(=C\C=C\c2ccccc2)S(=O)(=O)F)cc1)c1ccccc1 [Compound D6]	–	18.7 ± 2.1	inhibition at 20 µM (BuChE from equine serum): 29.7 ± 3.8%
O=S(=O)(F)C(Br)=CC=Cc1ccc(Cl)cc1 [Compound A3]	–	–	BuChE % inhibition at 20 µM (BuChE from equine serum): 42.2 ± 2.1%; AChE % inhibition at 20 µM (AChE from electric eel; [5]): 33.9 ± 0.9%
Cc1ccc(C=CC=C(Br)S(=O)(=O)F)cc1 [Compound A5]	1.72 ± 0.34	–	–
COc1ccc(C=CC=C(Br)S(=O)(=O)F)cc1 [Compound A6]	0.31 ± 0.04	–	–
COc1ccccc1/C=C/C=C(\Cl)S(=O)(=O)F [Compound B5]	0.13 ± 0.01	34.2 ± 0.4	–
Cc1ccc(C#C/C(=C\C=C\c2ccccc2)S(=O)(=O)F)cc1 [Compound D12]	–	43.5 ± 4	inhibition at 20 µM (BuChE from equine serum): 34.7 ± 0.1%
O=[N+]([O-])c1ccccc1C=CC=C(Br)S(=O)(=O)F [Compound A11]	0.27 ± 0.15	–	IC50 (AChE from electric eel; [6]): 0.15 ± 0.01 µM
O=S(=O)(F)/C(Cl)=C/C=C/c1ccccc1 [Compound B1]	0.44 ± 0.04	35.9 ± 1.4	–
O=S(=O)(F)/C(C#Cc1ccccc1)=C/C=C/c1ccccc1 [Compound D11]	–	30.4 ± 0.1	inhibition at 20 µM (BuChE from equine serum): 24.3 ± 0.4%
O=S(=O)(F)C(Br)=CC=Cc1cccc(Cl)c1 [Compound A14]	0.11 ± 0.02	17.9 ± 2	–
O=S(=O)(F)/C(C#Cc1ccsc1)=C/C=C/c1ccccc1 [Compound D13]	–	14.7 ± 0.2	inhibition at 20 µM (BuChE from equine serum): 31.3 ± 0.4%
O=S(=O)(F)C(Br)=CC=Cc1ccc(Cl)nc1 [Compound A18]	–	–	inhibition at 20 µM (BuChE from equine serum): 42.8 ± 3.6%; IC50 (AChE from electric eel): 0.079 ± 0.002 µM; inhibition at 20 µM [1]: 14.3 ± 0.9%
O=S(=O)(F)C(Br)=CC=Cc1ccc2ccccc2c1 [Compound A12]	2.91 ± 0.26	–	–
O=S(=O)(F)C(Br)=CC=Cc1ccc(F)cc1 [Compound A2]	0.43 ± 0.01	–	–
COc1ccc(/C(=C\C=C\c2ccccc2)S(=O)(=O)F)cc1 [Compound D3]	–	47.9 ± 0.4	inhibition at 20 µM (BuChE from equine serum): 33.7 ± 1.8%
O=S(=O)(F)C(Br)=CC=Cc1ccccc1 [Compound A1, δ-phenyl-α-Br-dienyl sulphonyl fluoride]	0.082 ± 0.007	–	–
O=S(=O)(F)/C(C#CC1CC1)=C/C=C/c1ccccc1 [Compound D14]	0.43 ± 0.08	–	IC50 (AChE from electric eel; [6]): 1.54 ± 0.32 µM

SMILES	IC50 (BuChE from equine serum) [µM]	inhibition at 20 µM (AChE from electric eel; [5]) [%]	other results
Cc1ccc(S(=O)(=O)n2cc(C=CC=C(Br)S(=O)(=O)F)c3ccccc32)cc1 [Compound A19]	–	46.2 ± 0.4	inhibition at 20 µM (BuChE from equine serum): 46 ± 1.6%
Cc1cccc(C=CC=C(Br)S(=O)(=O)F)c1 [Compound A15]	0.6 ± 0.12	–	–
O=S(=O)(F)/C(C#Cc1ccccc1F)=C/C=C/c1ccccc1 [Compound D9]	–	47.7 ± 1.9	inhibition at 20 µM (BuChE from equine serum): 31.7 ± 1%
COc1ccc(/C=C/C=C(\Cl)S(=O)(=O)F)cc1 [Compound B4]	0.54 ± 0.19	30.1 ± 3.8	–
O=S(=O)(F)C(Br)=CC=CC=Cc1ccccc1 [Compound A20]	12.5	–	inhibition at 20 µM (AChE from electric eel): 18.7 ± 2.4%
COc1ccccc1/C=C/C=C(\I)S(=O)(=O)F [Compound C5]	0.19 ± 0.04	39.5 ± 0.3	–
Cc1ccccc1C=CC=C(Br)S(=O)(=O)F [Compound A9]	0.3 ± 0.11	23.2 ± 4	–
Clc1cccc(Cl)c1N=C1NCCN1 [Clonidine, reference compound]	–	–	Papp (in vitro; pH 7.4, Pe×10^-6cm/s Exp. value): 7.85 ×10⁻⁶ cm/s; Pe×10^-6cm/s BibL. value [2]: 5.3 ×10^-6cm/s
O=S(=O)(F)/C(I)=C/C=C/c1ccc(F)cc1 [Compound C2]	0.45 ± 0.03	17 ± 1.7	–
O=S(=O)(F)/C(=C/C=C/c1ccccc1)c1ccc(Oc2ccccc2)cc1 [Compound D4]	–	36.7 ± 2.8	inhibition at 20 µM (BuChE from equine serum): 41.2 ± 1.1%
O=S(=O)(F)/C(Cl)=C/C=C/c1cccc(C(F)(F)F)c1 [Compound B6]	0.5 ± 0.21	26.8 ± 2.7	–
O=S(=O)(F)C(Br)=CC=Cc1ccc(Br)cc1 [Compound A4]	–	–	BuChE % inhibition at 20 µM (BuChE from equine serum): 19.2 ± 1.2%
O=S(=O)(F)C(Br)=CC=Cc1ccccc1Br [Compound A8]	0.44 ± 0.18	–	IC50 (AChE from electric eel; [6]): 0.107 ± 0.002 µM; BBB penetration [3]: CNS+ (“CNS +” (high BBB permeation): Pe (× 10^‒6 cm/s) >4.0); Pe×10^-6cm/s Exp. value ([3]; PAMPA-BBB, three independent experiments): 10.7 ×10^-6cm/s; Papp (in vitro; pH 7.4, Pe, PAMPA-BBB): 10.7 ×10⁻⁶ cm/s
O=S(=O)(F)/C(=C/C=C/c1ccccc1)c1ccc2ccccc2c1 [Compound D7]	–	42.3 ± 0.5	inhibition at 20 µM (BuChE from equine serum): 7.4 ± 0.2%
O=S(=O)(F)/C(I)=C/C=C/c1ccc(Cl)cc1 [Compound C3]	3.07 ± 1.72	38.9 ± 2.5	–
O=S(=O)(F)/C(I)=C/C=C/c1cccc(C(F)(F)F)c1 [Compound C6]	0.5 ± 0.04	24 ± 6	–
O=S(=O)(F)/C(C#Cc1ccc(Br)cc1)=C/C=C/c1ccccc1 [Compound D10]	–	36.9 ± 1.2	inhibition at 20 µM (BuChE from equine serum): 22.6 ± 0.7%
COc1cc2c(cc1OC)C(=O)C(CC1CCN(Cc3ccccc3)CC1)C2 (centres unmarked) [Donepezil, donepezil, reference compound]	–	–	effect on Aβ1-42-induced cognitive dysfunction (MWM) [4]: significantly improved
CN1C(C(=O)Nc2ccccn2)=C(O)c2ccccc2S1(=O)=O [Piroxicam, reference compound]	–	–	BBB penetration [3]: CNS+ (“CNS +” (high BBB permeation): Pe (× 10^‒6 cm/s) >4.0); Papp (in vitro; [7]): 9.87 ×10⁻⁶ cm/s; Pe×10^-6cm/s BibL. value [2]: 9.3 ×10^-6cm/s
O=S(=O)(F)C(Br)=CC=Cc1cccc(C(F)(F)F)c1 [Compound A17]	0.43 ± 0.03	12.1 ± 0.7	–
O=S(=O)(F)/C(=C/C=C/c1ccccc1)c1ccc(Br)cc1 [Compound D5]	–	29 ± 3.4	inhibition at 20 µM (BuChE from equine serum): 30.5 ± 0.9%
O=S(=O)(F)C(Br)=CC=Cc1ccc(-c2ccccc2)cc1 [Compound A7]	–	11.9 ± 0.5	inhibition at 20 µM (BuChE from equine serum): 45.2 ± 2%
O=S(=O)(F)/C(Cl)=C/C=C/c1ccc(F)cc1 [Compound B2]	0.51 ± 0.01	18.7 ± 1.7	–
CC(=O)[C@H]1CC[C@H]2[C@@H]3CCC4=CC(=O)CC[C@]4(C)[C@H]3CC[C@]12C [Progesterone, reference compound]	–	–	BBB penetration [3]: CNS+ (“CNS +” (high BBB permeation): Pe (× 10^‒6 cm/s) >4.0); Papp (in vitro; [7]): 18.2 ×10⁻⁶ cm/s
